Test results reported in article PMC4979471 (Cell Death Discovery, 2015).
Like-named read-outs stand apart in the source and are kept apart here.

Assays:
Assay in all cases: Kinase selectivity, P33-radiolabeled assay
Assay type in all cases: biochemical
Conditions in all cases: 10 μM ATP
GSK3b = target: T1, GSK3b (Homo sapiens, UniProt P49841)
T1 construct: purchased Reaction Biology Corp
Method in brief: (§1)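 Duplicate single-concentration testing used 10 μM compound. The ATP concentration was also 10 μM.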

MARK4 = target: T2, MARK4 (Homo sapiens, UniProt Q96L34)
T2 construct: purchased Reaction Biology Corp
T2 sequence (Q96L34 1-752): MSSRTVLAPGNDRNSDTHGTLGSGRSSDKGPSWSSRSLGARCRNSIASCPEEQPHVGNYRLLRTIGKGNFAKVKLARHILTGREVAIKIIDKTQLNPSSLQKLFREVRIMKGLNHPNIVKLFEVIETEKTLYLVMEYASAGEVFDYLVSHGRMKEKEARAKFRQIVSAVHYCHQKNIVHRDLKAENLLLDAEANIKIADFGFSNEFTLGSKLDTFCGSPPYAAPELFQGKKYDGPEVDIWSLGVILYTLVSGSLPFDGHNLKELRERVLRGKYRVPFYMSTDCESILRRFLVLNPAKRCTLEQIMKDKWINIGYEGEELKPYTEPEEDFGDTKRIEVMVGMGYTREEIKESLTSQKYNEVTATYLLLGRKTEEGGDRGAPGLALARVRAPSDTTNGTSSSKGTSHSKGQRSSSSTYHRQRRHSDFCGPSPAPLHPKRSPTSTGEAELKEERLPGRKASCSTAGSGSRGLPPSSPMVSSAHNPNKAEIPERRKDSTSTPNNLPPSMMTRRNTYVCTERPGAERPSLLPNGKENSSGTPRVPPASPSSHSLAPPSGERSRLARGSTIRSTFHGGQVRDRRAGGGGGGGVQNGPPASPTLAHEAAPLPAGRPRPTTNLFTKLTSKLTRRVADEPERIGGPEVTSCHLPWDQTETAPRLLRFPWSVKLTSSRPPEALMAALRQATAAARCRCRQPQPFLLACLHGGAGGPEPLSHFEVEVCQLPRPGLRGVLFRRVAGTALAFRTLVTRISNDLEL
Method in brief: as §1

PLK1 = target: T3, PLK1 (Homo sapiens, UniProt P53350)
T3 construct: purchased Reaction Biology Corp
T3 sequence (P53350 whole entry): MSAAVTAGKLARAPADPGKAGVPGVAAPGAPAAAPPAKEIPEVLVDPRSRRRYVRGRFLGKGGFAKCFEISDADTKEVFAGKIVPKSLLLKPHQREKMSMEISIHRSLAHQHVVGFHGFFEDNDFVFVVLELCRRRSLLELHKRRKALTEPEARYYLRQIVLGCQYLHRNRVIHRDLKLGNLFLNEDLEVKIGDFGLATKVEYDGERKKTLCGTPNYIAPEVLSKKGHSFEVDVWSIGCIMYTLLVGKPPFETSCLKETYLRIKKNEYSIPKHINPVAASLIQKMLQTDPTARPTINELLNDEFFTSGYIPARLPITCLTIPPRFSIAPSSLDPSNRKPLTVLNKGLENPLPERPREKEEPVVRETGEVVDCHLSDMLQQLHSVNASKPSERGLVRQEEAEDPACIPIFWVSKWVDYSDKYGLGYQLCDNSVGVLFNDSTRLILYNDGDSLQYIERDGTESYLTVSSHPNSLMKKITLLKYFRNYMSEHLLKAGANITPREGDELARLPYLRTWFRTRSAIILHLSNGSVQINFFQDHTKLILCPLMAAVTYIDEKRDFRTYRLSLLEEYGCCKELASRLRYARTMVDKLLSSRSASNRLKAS
Method in brief: as §1

RAF1 = target: T4, RAF1 (Homo sapiens, UniProt P04049)
T4 construct: purchased Reaction Biology Corp
T4 sequence (P04049 whole entry): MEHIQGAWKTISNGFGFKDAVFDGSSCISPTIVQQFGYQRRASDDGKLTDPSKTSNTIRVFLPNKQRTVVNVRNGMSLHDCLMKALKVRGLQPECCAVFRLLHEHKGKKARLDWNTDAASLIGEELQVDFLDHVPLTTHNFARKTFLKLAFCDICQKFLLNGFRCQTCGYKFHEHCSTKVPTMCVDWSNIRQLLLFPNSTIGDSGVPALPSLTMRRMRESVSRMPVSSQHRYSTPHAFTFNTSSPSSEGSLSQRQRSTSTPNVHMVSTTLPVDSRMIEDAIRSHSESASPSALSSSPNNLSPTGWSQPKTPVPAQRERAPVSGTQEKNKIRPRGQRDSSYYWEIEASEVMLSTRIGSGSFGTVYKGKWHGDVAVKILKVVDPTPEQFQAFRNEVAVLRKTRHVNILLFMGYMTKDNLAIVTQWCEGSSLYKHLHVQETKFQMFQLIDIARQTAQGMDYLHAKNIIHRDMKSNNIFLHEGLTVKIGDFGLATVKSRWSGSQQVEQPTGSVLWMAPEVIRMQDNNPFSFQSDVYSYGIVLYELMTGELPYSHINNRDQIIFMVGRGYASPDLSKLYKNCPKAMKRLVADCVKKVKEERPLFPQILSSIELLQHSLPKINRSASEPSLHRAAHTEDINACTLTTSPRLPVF
Method in brief: as §1

TEC = target: T5, TEC (Homo sapiens, UniProt P42680)
T5 construct: purchased Reaction Biology Corp
T5 sequence (P42680 1-631): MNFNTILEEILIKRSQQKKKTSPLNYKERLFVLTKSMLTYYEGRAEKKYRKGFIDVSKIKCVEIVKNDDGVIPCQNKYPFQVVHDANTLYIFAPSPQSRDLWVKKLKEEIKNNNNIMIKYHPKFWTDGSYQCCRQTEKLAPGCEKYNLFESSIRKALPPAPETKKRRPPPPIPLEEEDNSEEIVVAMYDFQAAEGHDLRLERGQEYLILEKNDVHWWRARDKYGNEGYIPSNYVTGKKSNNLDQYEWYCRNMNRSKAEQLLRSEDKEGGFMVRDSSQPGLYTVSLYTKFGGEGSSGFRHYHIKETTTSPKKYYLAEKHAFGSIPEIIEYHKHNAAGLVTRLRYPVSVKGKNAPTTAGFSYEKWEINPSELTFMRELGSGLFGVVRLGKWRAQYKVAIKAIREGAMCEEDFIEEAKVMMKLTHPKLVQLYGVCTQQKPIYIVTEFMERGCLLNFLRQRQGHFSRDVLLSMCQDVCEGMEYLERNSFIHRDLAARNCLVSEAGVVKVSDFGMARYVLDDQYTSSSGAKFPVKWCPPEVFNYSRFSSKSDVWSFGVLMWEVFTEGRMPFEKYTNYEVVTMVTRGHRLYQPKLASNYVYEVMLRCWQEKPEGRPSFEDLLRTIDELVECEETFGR
Method in brief: as §1

FLT3 = target: T6, FLT3 (Homo sapiens, UniProt P36888)
T6 construct: purchased Reaction Biology Corp
T6 sequence (P36888 27-993): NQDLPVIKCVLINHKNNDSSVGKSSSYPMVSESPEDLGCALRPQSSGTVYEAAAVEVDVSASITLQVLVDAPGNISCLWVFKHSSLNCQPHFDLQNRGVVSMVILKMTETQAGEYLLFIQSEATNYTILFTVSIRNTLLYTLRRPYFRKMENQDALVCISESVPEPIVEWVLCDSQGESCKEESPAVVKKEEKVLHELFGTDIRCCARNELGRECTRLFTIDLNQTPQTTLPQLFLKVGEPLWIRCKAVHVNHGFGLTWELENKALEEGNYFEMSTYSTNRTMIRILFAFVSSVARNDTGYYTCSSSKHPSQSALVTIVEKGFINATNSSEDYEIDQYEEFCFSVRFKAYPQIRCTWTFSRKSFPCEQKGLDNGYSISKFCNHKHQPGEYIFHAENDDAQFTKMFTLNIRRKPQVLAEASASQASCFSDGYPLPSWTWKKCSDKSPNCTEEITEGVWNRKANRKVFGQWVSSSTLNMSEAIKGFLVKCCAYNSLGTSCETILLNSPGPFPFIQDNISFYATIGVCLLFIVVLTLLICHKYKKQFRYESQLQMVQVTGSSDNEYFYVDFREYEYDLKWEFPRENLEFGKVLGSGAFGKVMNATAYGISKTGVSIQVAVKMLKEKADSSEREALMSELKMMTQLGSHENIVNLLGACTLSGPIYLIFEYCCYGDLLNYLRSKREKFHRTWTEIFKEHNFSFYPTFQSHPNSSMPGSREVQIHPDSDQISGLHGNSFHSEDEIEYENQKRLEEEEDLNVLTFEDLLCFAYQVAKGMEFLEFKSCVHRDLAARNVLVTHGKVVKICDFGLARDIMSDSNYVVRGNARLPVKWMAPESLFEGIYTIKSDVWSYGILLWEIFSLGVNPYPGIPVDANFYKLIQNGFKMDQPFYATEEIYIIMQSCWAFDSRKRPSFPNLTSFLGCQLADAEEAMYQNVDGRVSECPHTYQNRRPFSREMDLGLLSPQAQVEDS
Method in brief: as §1

CDK5/p35 = target: T7, CDK5/p35 (Homo sapiens, UniProt Q00535)
T7 construct: purchased Reaction Biology Corp
T7 sequence (Q00535 whole entry): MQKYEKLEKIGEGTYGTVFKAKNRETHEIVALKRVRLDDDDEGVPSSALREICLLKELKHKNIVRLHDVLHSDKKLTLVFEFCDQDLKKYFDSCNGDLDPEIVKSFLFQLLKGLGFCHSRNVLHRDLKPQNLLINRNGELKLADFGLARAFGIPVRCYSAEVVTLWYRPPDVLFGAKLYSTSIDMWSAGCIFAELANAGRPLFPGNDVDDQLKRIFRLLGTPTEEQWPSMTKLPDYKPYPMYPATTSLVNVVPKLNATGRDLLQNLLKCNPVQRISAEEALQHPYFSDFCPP
T7 sequence (Q15078 whole entry partner): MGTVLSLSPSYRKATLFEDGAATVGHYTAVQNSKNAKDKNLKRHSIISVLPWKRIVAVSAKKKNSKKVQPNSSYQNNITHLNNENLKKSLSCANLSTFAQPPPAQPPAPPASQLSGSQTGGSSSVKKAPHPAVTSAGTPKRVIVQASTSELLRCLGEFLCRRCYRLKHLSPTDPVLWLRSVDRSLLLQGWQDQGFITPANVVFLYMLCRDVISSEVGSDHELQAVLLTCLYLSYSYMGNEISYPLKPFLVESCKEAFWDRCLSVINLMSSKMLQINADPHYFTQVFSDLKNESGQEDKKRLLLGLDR
Method in brief: as §1

[1] = read-out: % Enzyme Activity (relative to DMSO controls) AVG
[2] = read-out: % Enzyme Activity (relative to DMSO controls) Data 1
[3] = read-out: % Enzyme Activity (relative to DMSO controls) Data 2

T1 sequence (P49841 whole entry): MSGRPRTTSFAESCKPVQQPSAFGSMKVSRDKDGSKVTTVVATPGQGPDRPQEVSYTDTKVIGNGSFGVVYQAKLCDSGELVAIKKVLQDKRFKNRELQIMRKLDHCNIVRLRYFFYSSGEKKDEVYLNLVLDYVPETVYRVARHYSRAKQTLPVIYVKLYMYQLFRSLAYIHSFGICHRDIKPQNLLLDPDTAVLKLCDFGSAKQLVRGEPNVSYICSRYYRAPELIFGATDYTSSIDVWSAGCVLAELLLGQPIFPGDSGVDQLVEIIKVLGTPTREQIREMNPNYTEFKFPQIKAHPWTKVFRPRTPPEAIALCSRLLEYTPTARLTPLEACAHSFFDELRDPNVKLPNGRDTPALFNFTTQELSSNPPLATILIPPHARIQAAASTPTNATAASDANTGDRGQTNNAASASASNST

CC(C)(C)C(=O)N1N=CC[C@H]1c1ccccc1 [GSK′963]
remaining activity at 10 µM (GSK3b; [1]): 98.7%
remaining activity at 10 µM (GSK3b; [2]): 98.8%
remaining activity at 10 µM (GSK3b; [3]): 98.6%
remaining activity at 10 µM (MARK4; [1]): 107%
remaining activity at 10 µM (MARK4; [2]): 105%
remaining activity at 10 µM (MARK4; [3]): 109%
remaining activity at 10 µM (PLK1; [1]): 103%
remaining activity at 10 µM (PLK1; [2]): 105%
remaining activity at 10 µM (PLK1; [3]): 101%
remaining activity at 10 µM (RAF1; [1]): 93.7%
remaining activity at 10 µM (RAF1; [2]): 94.8%
remaining activity at 10 µM (RAF1; [3]): 92.7%
remaining activity at 10 µM (TEC; [1]): 104%
remaining activity at 10 µM (TEC; [2]): 98.7%
remaining activity at 10 µM (TEC; [3]): 109%
remaining activity at 10 µM (FLT3; [1]): 101%
remaining activity at 10 µM (FLT3; [2]): 98.7%
remaining activity at 10 µM (FLT3; [3]): 103%
remaining activity at 10 µM (CDK5/p35; [1]): 96.2%
remaining activity at 10 µM (CDK5/p35; [2]): 95.5%
remaining activity at 10 µM (CDK5/p35; [3]): 97%
